Results: patent publication US12180202B1, “2-[(1,3-benzothiazol-2-yl)imino]-5,5-diphenylimidazolidin-4-one as an antimicrobial compound” (KING FAISAL UNIVERSITY, priority 2023, dated 2024)

Legend:
Type in all cases: cell-based
Staphylococcus aureus = experiment: agar plate disc-diffusion, antibacterial activity; conditions: nutrient agar, 37° C., 48 h
Method: (§1) The agar plate disc-diffusion method was applied. […] The discs were then placed onto the surface of agar plates (nutrient agar for bacteria and Sabouraud's dextrose agar for fungi) seeded with the test organism. Each plate contained 15 mL of the agar medium, previously seeded with 0.2 mL of the broth culture of each organism pregrown for 18 hours. The plates were incubated at 37° C. for 48 h, and 72 h for fungi. The inhibition zones were measured in mm. Discs impregnated with DMSO were used as a control, and its inhibition zone was subtracted from the tested compound actual inhibition zone.

Escherichia coli = experiment: agar plate disc-diffusion, antibacterial activity; conditions: nutrient agar, 37° C., 48 h
Method: as §1

Pseudomonas aeruginosa = experiment: agar plate disc-diffusion, antibacterial activity; conditions: nutrient agar, 37° C., 48 h
Method: as §1

Bacillus cereus = experiment: agar plate disc-diffusion, antibacterial activity; conditions: nutrient agar, 37° C., 48 h
Method: as §1

Aspergillus flavus = experiment: agar plate disc-diffusion, antifungal activity; conditions: Sabouraud's dextrose agar, 72 h
Method: as §1

[1] = system: Chrysosporium keratinophilum; experiment: agar plate disc-diffusion, antifungal activity; conditions: Sabouraud's dextrose agar, 72 h
Method: as §1

different microbes = experiment: antimicrobial activity screening, overall statement; conditions: against different microbes (bacteria and fungi of Tables 1 and 2)
Method: The agar plate disc-diffusion method was applied. Sterilized filter papers (6 mm in diameter) were wetted with 10 μL of a solution of 2-[(1,3-benzothiazol-2-yl)imino]-5,5-diphenylimidazolidin-4-one (3) to be tested, containing 10 mg/mL in DMSO, and the discs were allowed to air dry. The discs were then placed onto the surface of agar plates (nutrient agar for bacteria and Sabouraud's dextrose agar for fungi) seeded with the test organism. Each plate contained 15 mL of the agar medium, previously seeded with 0.2 mL of the broth culture of each organism pregrown for 18 hours. The plates were incubated at 37° C. for 48 h, and 72 h for fungi. The inhibition zones were measured in mm. Discs impregnated with DMSO were used as a control, and its inhibition zone was subtracted from the tested compound actual inhibition zone.

[2] = A = concentration of comp. = 10,000 μL
[3] = B = concentration of comp. = 30,000 μL
[4] = C = concentration of comp. = 50,000 μL
[5] = A = concentration of comp. = 10 mg/mL

Row | SMILES | inhibition zone (Staphylococcus aureus; [2]) [mm] | inhibition zone (Staphylococcus aureus; [3]) [mm] | inhibition zone (Staphylococcus aureus; [4]) [mm] | inhibition zone (Escherichia coli; A =) [mm] | inhibition zone (Escherichia coli; [3]) [mm] | inhibition zone (Escherichia coli; [4]) [mm] | inhibition zone (Pseudomonas aeruginosa; [2]) [mm] | inhibition zone (Pseudomonas aeruginosa; [3]) [mm] | inhibition zone (Pseudomonas aeruginosa; [4]) [mm] | inhibition zone (Bacillus cereus; [2]) [mm] | inhibition zone (Bacillus cereus; [3]) [mm] | inhibition zone (Bacillus cereus; [4]) [mm] | inhibition zone (Aspergillus flavus; [5]) [mm] | inhibition zone (Aspergillus flavus; [3]) [mm] | inhibition zone (Aspergillus flavus; [4]) [mm] | inhibition zone [1, 2] [mm] | inhibition zone [1, 3] [mm] | inhibition zone [1, 4] [mm] | antimicrobial activities (different microbes)
1 | O=C(O)c1cn(C2CC2)c2cc(N3CCNCC3)c(F)cc2c1=O [Cip., ciprofloxacin, reference compound] | 43 | 44 | 53 | 30 | 39 | 60 | 29 | 30 | 53 | 29 | 30 | 42 | 29 | 30 | 42 | 29 | 30 | 53 | 
2 | O=C1N/C(=N/c2nc3ccccc3s2)NC1(c1ccccc1)c1ccccc1 [Compound 3, 2-[(1,3-benzothiazol-2-yl)imino]-5,5-diphenylimidazolidin-4-one] | 19 | 23 | 35 | 26 | 34 | 50 | 24 | 28 | 45 | 20 | 23 | 35 | 21 | 25 | 31 | 26 | 29 | 45 | excellent antimicrobial activities
